Data: US6274715A, “Tricyclic erythromycin derivatives” (priority 1997, dated 2001)
In brackets after ≈: the same amount, converted by molar mass.

Legend:
Format in all cases: cell-based
[1] = tested on: STAPHYLOCOCCUS AUREUS ATCC 6538P; experiment: In vitro antibacterial activity, MIC, BHI agar dilution; conditions: S. aureus ATCC 6538P, 35-37° C., 20 to 24 hours, unit assumed
[2] = tested on: STAPHYLOCOCCUS AUREUS A5177; experiment: as above; conditions: S. aureus A5177, unit assumed
[3] = tested on: STAPHYLOCOCCUS AUREUS A-5278; experiment: as above; conditions: S. aureus A-5278, unit assumed
[4] = tested on: STAPHYLOCOCCUS AUREUS CMX 642A; experiment: as above; conditions: S. aureus CMX 642A, unit assumed
[5] = tested on: STAPHYLOCOCCUS AUREUS NCTC10649M; experiment: as above; conditions: S. aureus NCTC10649M, unit assumed
[6] = tested on: STAPHYLOCOCCUS AUREUS CMX 553; experiment: as above; conditions: S. aureus CMX 553, unit assumed
[7] = tested on: STAPHYLOCOCCUS AUREUS 1775; experiment: as above; conditions: S. aureus 1775, unit assumed
[8] = tested on: STAPHYLOCOCCUS EPIDERMIDIS 3519; conditions: S. epidermidis 3519; BHI agar; unit assumed
[9] = tested on: EN[…] ATCC 8043; experiment: In vitro antibacterial activity, MIC, BHI agar dilution; conditions: E. faecium ATCC 8043, unit assumed
Method in brief: (§1)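 BHI agar dilution, 12 plates; inoculum 1:100 (1:10 slow-growing strains), Steers replicator; 35-37° C, 20-24 h. MIC = lowest conc. with no growth/slight haze/sparse colonies vs growth control, visual read. Erythromycin A reference plate.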

[10] = tested on: M[…] ATCC 4698; experiment: as above; conditions: M. luteus ATCC 4698, unit assumed
Method in brief: as §1

[11] = tested on: M[…] ATCC 9341; experiment: as above; conditions: M. luteus ATCC 9341, unit assumed
Method in brief: as §1

[12] = tested on: STR[…] 508; experiment: as above; conditions: S. agalactiae CMX 508, unit assumed
Method in brief: as §1

[13] = tested on: STREPTOCOCCUS BOVIS A-5169; experiment: as above; conditions: S. bovis A-5169, unit assumed
[14] = tested on: STREPTOCOCCUS PYOGENES EES61; experiment: as above; conditions: S. pyogenes EES61, unit assumed
[15] = tested on: STREPTOCOCCUS PYOGENES 930; experiment: as above; conditions: S. pyogenes 930, unit assumed
[16] = tested on: STREPTOCOCCUS PYOGENES PIU 2548; experiment: as above; conditions: S. pyogenes PIU 2548, unit assumed
[17] = tested on: ESCHERICHIA COLI JUHL; conditions: E. coli JUHL; BHI agar; unit assumed
[18] = tested on: ESCHERICHIA COLI SS; experiment: In vitro antibacterial activity, MIC, BHI agar dilution; conditions: E. coli SS, unit assumed
[19] = tested on: ESCHERICHIA COLI DC-2; experiment: as above; conditions: E. coli DC-2, unit assumed
[20] = tested on: ESCHERICHIA COLI H560; experiment: as above; conditions: E. coli H560, unit assumed
[21] = tested on: ESCHERICHIA COLI KNK 437; conditions: E. coli KNK 437; BHI agar; unit assumed
[22] = tested on: ENTEROBACTER AEROGENES ATCC 13048; experiment: In vitro antibacterial activity, MIC, BHI agar dilution; conditions: E. aerogenes ATCC 13048, unit assumed
[23] = tested on: KLEBSIELLA PNEUMONIAE ATCC 8045; experiment: as above; conditions: K. pneumoniae ATCC 8045, unit assumed
[24] = tested on: PROVIDENCIA STUARTII CMX 640; conditions: P. stuartii CMX 640; BHI agar; unit assumed
[25] = tested on: PSEUDOMONAS AERUGINOSA BMH10; experiment: In vitro antibacterial activity, MIC, BHI agar dilution; conditions: P. aeruginosa BMH10, unit assumed
[26] = tested on: PSEUDOMONAS AERUGINOSA 5007; experiment: as above; conditions: P. aeruginosa 5007, unit assumed
[27] = tested on: PSEUDOMONAS AERUGINOSA K799/WT; experiment: as above; conditions: P. aeruginosa K799/WT, unit assumed
[28] = tested on: PSEUDOMONAS AERUGINOSA K799/61; experiment: as above; conditions: P. aeruginosa K799/61, unit assumed
[29] = tested on: PSEUDOMONAS CEPACIA 296I; experiment: as above; conditions: P. cepacia 296I, unit assumed
[30] = tested on: PSEUDOMONAS AERUGINOSA DPHD-5263; experiment: as above; conditions: P. aeruginosa DPHD-5263, unit assumed
[31] = tested on: PSEUDOMONAS AERUGINOSA DPHD-2862; experiment: as above; conditions: P. aeruginosa DPHD-2862, unit assumed
[32] = tested on: CANDIDA ALBICANS CCH 442; experiment: as above; conditions: C. albicans CCH 442, unit assumed
[33] = tested on: MYCOBACTERIUM SMEGMATIS ATCC 114; experiment: as above; conditions: M. smegmatis ATCC 114, unit assumed

SMILES | MIC [1] [µg/mL] | MIC [2] [µg/mL] | MIC [3] [µg/mL] | MIC [4] [µg/mL] | MIC [5] [µg/mL] | MIC [6] [µg/mL] | MIC [7] [µg/mL] | MIC [8] [µg/mL] | MIC [9] [µg/mL] | MIC [10] [µg/mL] | MIC [11] [µg/mL] | MIC [12] [µg/mL] | MIC [13] [µg/mL] | MIC [14] [µg/mL] | MIC [15] [µg/mL] | MIC [16] [µg/mL] | MIC [17] [µg/mL] | MIC [18] [µg/mL] | MIC [19] [µg/mL] | MIC [20] [µg/mL] | other results
CC[C@H]1OC(=O)[C@H](C)C(=O)[C@H](C)[C@@H](O[C@@H]2O[C@H](C)C[C@H](N(C)C)[C@H]2O)[C@](C)(OC)C[C@@H](C)C2=NC[C@H](COC(=O)c3ccncc3)N3C(=O)O[C@@]1(C)[C@H]3[C@H]2C [Example 138] | 0.39 (≈ 0.505 µM) | 0.39 (≈ 0.505 µM) | > 100 | 0.39 (≈ 0.505 µM) | 0.39 (≈ 0.505 µM) | 0.39 (≈ 0.505 µM) | > 100 | 0.39 (≈ 0.505 µM) | 0.1 (≈ 0.129 µM) | 0.39 (≈ 0.505 µM) | 0.02 (≈ 0.0259 µM) | 0.1 (≈ 0.129 µM) | 0.01 (≈ 0.0129 µM) | 0.02 (≈ 0.0259 µM) | > 100 | 1.56 (≈ 2.02 µM) | 50 (≈ 64.7 µM) | 0.78 (≈ 1.01 µM) | 50 (≈ 64.7 µM) | 50 (≈ 64.7 µM) | MIC [21]: 50 µg/mL (≈ 64.7 µM); MIC [22]: > 100 µg/mL; MIC [23]: > 100 µg/mL; MIC [24]: > 100 µg/mL; MIC [25]: > 100 µg/mL; MIC [26]: > 100 µg/mL; MIC [27]: > 100 µg/mL; MIC [28]: 0.78 µg/mL (≈ 1.01 µM); MIC [29]: 100 µg/mL (≈ 129 µM); MIC [30]: > 100 µg/mL; MIC [31]: > 100 µg/mL; MIC [32]: > 100 µg/mL; MIC [33]: 3.1 µg/mL (≈ 4.01 µM)
CC[C@H]1OC(=O)[C@H](C)C(=O)[C@H](C)[C@@H](O[C@@H]2O[C@H](C)C[C@H](N(C)C)[C@H]2O)[C@](C)(OC)C[C@@H](C)C2=NCC(COC(=O)c3ccc([N+](=O)[O-])cc3)N3C(=O)O[C@@]1(C)[C@H]3[C@H]2C (stereo partly drawn) [Example 140] | 0.1 (≈ 0.122 µM) | 0.1 (≈ 0.122 µM) | > 100 | 0.1 (≈ 0.122 µM) | 0.1 (≈ 0.122 µM) | 0.1 (≈ 0.122 µM) | > 100 | 0.1 (≈ 0.122 µM) | 0.05 (≈ 0.0612 µM) | 0.1 (≈ 0.122 µM) | 0.01 (≈ 0.0122 µM) | 0.02 (≈ 0.0245 µM) | ≤ 0.005 | ≤ 0.005 | 50 (≈ 61.2 µM) | 0.2 (≈ 0.245 µM) | 50 (≈ 61.2 µM) | 0.78 (≈ 0.955 µM) | 50 (≈ 61.2 µM) | 25 (≈ 30.6 µM) | MIC [21]: 50 µg/mL (≈ 61.2 µM); MIC [22]: > 100 µg/mL; MIC [23]: > 100 µg/mL; MIC [24]: > 100 µg/mL; MIC [25]: > 100 µg/mL; MIC [26]: > 100 µg/mL; MIC [27]: > 100 µg/mL; MIC [28]: 0.39 µg/mL (≈ 0.477 µM); MIC [29]: 25 µg/mL (≈ 30.6 µM); MIC [30]: > 100 µg/mL; MIC [31]: > 100 µg/mL; MIC [32]: > 100 µg/mL; MIC [33]: 0.39 µg/mL (≈ 0.477 µM)
CC[C@H]1OC(=O)[C@H](C)C(=O)[C@H](C)[C@@H](O[C@@H]2O[C@H](C)C[C@H](N(C)C)[C@H]2O)[C@](C)(OC)C[C@@H](C)C2=NCC(COC(=O)c3ccc(Cl)cc3)N3C(=O)O[C@@]1(C)[C@H]3[C@H]2C (stereo partly drawn) [Example 141] | 0.1 (≈ 0.124 µM) | 0.1 (≈ 0.124 µM) | 50 (≈ 62 µM) | 0.1 (≈ 0.124 µM) | 0.1 (≈ 0.124 µM) | 0.1 (≈ 0.124 µM) | 50 (≈ 62 µM) | 0.1 (≈ 0.124 µM) | 0.02 (≈ 0.0248 µM) | 0.1 (≈ 0.124 µM) | 0.01 (≈ 0.0124 µM) | 0.02 (≈ 0.0248 µM) | ≤ 0.005 | ≤ 0.005 | 50 (≈ 62 µM) | 0.2 (≈ 0.248 µM) | 50 (≈ 62 µM) | 0.78 (≈ 0.967 µM) | 50 (≈ 62 µM) | 12.5 (≈ 15.5 µM) | MIC [21]: 50 µg/mL (≈ 62 µM); MIC [22]: > 100 µg/mL; MIC [23]: 100 µg/mL (≈ 124 µM); MIC [24]: > 100 µg/mL; MIC [25]: 100 µg/mL (≈ 124 µM); MIC [26]: > 100 µg/mL; MIC [27]: > 100 µg/mL; MIC [28]: 1.56 µg/mL (≈ 1.93 µM); MIC [29]: 25 µg/mL (≈ 31 µM); MIC [30]: > 100 µg/mL; MIC [31]: > 100 µg/mL; MIC [32]: > 100 µg/mL; MIC [33]: 0.2 µg/mL (≈ 0.248 µM)
